{
  "source": "patent US20240376432A1",
  "about": "“METHOD FOR PREPARING PLURIPOTENT STEM CELL-DERIVED HEMATOPOIETIC STEM CELL AND METHOD FOR CONSTRUCTING HUMANIZED MOUSE MODEL BY USING HEMATOPOIETIC STEM CELL THUS PREPARED” (SUNGKWANG MEDICAL FOUNDATION, priority 2021, published 2024)",
  "system": "human pluripotent stem cells (hPSCs)",
  "assay": "Differentiation of human pluripotent stem cells into hematopoietic stem cells, proportion of CD34+CD45+ cells by FACS",
  "format": "cell-based",
  "procedure": "Specific experiments on the method of preparing human hematopoietic stem cells were performed as follows. First, isolated human pluripotent stem cells (hPSCs) were maintained in stemMACS-IPS brew medium for 2 days. The differentiation base culture medium consisted of the following composition: Stempro 34-SFM (+stempro sup)+200 ug/ml of human Transferrin +2 mM of L-glutamine+0.5 mM of L-ascorbic acid+0.45 mM of MTG (1-thioglycerol) +1% of penicillin/streptomycin. To induce mesodermfrom the isolated hPSCs, treatment was performed with CHIR99021 (5 uM) alone, a representative example of a GSK inhibitor, for about 2 days. Next, treatment was performed with 50 ng/ml of BMP4, 50 ng/ml of VEGF, and 100 ng/ml of bFGF for 2 days to induce hemangioblasts. Next, 50 ng/ml of VEGF, 50 ng/ml of bFGF, and SB-431542 (10 μM) as representative examples of TGF-beta inhibitors and 1 μM of retinoic acid (RA) were added and cultured for about 1 day, and 0.1% (w/v) of PVA, 50 ng/ml of stem cell factor (SCF), and 10 ng/ml of bFGF were added and cultured for about 11 days (FIG. 2).\nSpecifically, it is widely known that vascular endothelial growth factor (VEGF) may be used to induce mesoderm and induce and maintain hemangioblasts (precursors of HSCs), and has been mainly used during the period of inducing hematopoietic stem cells. Therefore, to determine what effect it will have on the final hematopoietic stem cell generation efficiency when VEGF is excluded from the induction of hematopoietic stem cells, the results of hematopoietic stem cell differentiation according to the presence or absence of VEGF (10 ng/ml) were confirmed under the same conditions (50 ng/ml of SCF, 10 ng/ml of bFGF, 20 ng/ml of IL-3 and 10 ng/ml of IL-6) (FIG. 3A).\nTo confirm the differentiation results, Fluorescence Activated Cell Sorting (FACS) was performed to confirm the proportion of CD34^+CD45^+ cells. […] After washing away the remaining antibodies with staining buffer, 200 μl of staining buffer was added again and analyzed using a flow cytometer.\nSpecifically, in the existing method, treatment was performed with bone morphogenetic protein 4 (BMP4), VEGF, and CHIR99021 to induce mesoderm. However, it was determined that the above conditions were not compatible with the sequence of the process for differentiating stem cells into hematopoietic stem cells. […]\nFor this purpose, the efficiency of hematopoietic stem cell differentiation when treated with SB-431542 (SB4), a representative example of a TGF-beta inhibitor, in addition to VEGF and basic fibroblast growth factor (bFGF) for various periods of time, was determined (FIG. 5A). […]",
  "data": [
    {"molecule": "NC(=O)c1ccc(-c2nc(-c3ccc4c(c3)OCO4)c(-c3ccccn3)[nH]2)cc1", "note": "[SB4]", "values": [
      {"measurement": "hematopoietic stem cell differentiation efficiency", "setting": "EHT induction, SB4 for a long period of time in addition to VEGF and bFGF, FIG. 5B", "result": "significantly reduced"},
      {"measurement": "proportion of CD34+CD45+ cells", "setting": "EHT induction, SB4 for less than 24 hours in addition to VEGF and bFGF, FIG. 5B", "result": "significantly superior"}
    ]},
    {"molecule": "Cc1cnc(-c2cnc(NCCNc3ccc(C#N)cn3)nc2-c2ccc(Cl)cc2Cl)[nH]1", "note": "[CHIR99021, 6-[[2-[[4-(2,4-Dichlorophenyl)-5-(5-methyl-1H-imidazol-2-yl)-2-pyrimidinyl]amino]ethyl]amino]-3-pyridinecarbonitrile]", "values": [
      {"measurement": "ratio of CD34+CD45+ cells", "setting": "CHIR99021 alone in mesoderm induction, compared with BMP4 (5 ng/ml), VEGF (50 ng/ml) and CHIR99021, FIG. 4B", "result": "significantly superior"}
    ]},
    {"molecule": "VEGF", "values": [
      {"measurement": "ratio of CD34+CD45+ cells", "setting": "VEGF (10 ng/ml) present or absent during hematopoietic stem cell induction, with 50 ng/ml SCF, 10 ng/ml bFGF, 20 ng/ml IL-3, 10 ng/ml IL-6, FIG. 3B", "result": "excluding VEGF from the induction of hematopoietic stem cells was significantly superior"}
    ]}
  ]
}
